According to patent US10227357B2, “Compounds and methods for kinase modulation, and indications therefor” (Plexxikon Inc., priority 2012, dated 2019):

Legend:
[1] = molecular target: T1, c-kit kinase (Homo sapiens, UniProt P10721); experiment: c-Kit biochemical assay, AlphaScreen, 10 μM ATP; conditions: c-kit biochemical inhibitory activity; read-out: Biochemical activity (IC50 μM) Kit
T1 construct: The c-kit (or kinase domain thereof) is an active kinase in AlphaScreen; poly-Histidine tag (in-house protein only) (cleaved yes); host or cells: E. coli BL21(DE3)RIL, co-expressed with PTP1B
Method in brief: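 His-tagged c-Kit expressed in E. coli with co-expressed PTP1B (dephosphorylated), tag removed; 0.1 ng per reaction with biotinylated-peptide substrate in 50 mM HEPES pH 7.2, 5 mM MgCl2, 5 mM MnCl2, 5% DMSO, 10 μM ATP, 1 h at room temperature. Phosphorylation detected by AlphaScreen (streptavidin donor, PY20 acceptor beads); IC50 from 8-point 1:3 dilution series.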

[2] = molecular target: T2, c-kit mutant D816V (Homo sapiens, UniProt P10721, D816V/DEL694-753); experiment: c-Kit mutant D816V biochemical assay, AlphaScreen; conditions: c-kit D816V biochemical inhibitory activity; read-out: Biochemical activity (IC50 μM) Kit D816V
T2 construct: residues 551-934, kinase insertion domain residues 694-753 deleted; 6x-histidine (N); made in house; host or cells: E. coli Arctic Express (DE3) RIL (Stratagene)
Method in brief: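 Eight-point, threefold compound series incubated 30 min at room temperature with E. coli-produced D816V kinase, 10 μM ATP, Mg2+/Mn2+ HEPES buffer pH 7.2 and 5% DMSO. After EDTA stop, streptavidin and anti-phosphotyrosine (PY20) AlphaScreen beads gave the read-out, and IC50 was fitted from the concentration–signal curve.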

T1 sequence (P10721 26-976): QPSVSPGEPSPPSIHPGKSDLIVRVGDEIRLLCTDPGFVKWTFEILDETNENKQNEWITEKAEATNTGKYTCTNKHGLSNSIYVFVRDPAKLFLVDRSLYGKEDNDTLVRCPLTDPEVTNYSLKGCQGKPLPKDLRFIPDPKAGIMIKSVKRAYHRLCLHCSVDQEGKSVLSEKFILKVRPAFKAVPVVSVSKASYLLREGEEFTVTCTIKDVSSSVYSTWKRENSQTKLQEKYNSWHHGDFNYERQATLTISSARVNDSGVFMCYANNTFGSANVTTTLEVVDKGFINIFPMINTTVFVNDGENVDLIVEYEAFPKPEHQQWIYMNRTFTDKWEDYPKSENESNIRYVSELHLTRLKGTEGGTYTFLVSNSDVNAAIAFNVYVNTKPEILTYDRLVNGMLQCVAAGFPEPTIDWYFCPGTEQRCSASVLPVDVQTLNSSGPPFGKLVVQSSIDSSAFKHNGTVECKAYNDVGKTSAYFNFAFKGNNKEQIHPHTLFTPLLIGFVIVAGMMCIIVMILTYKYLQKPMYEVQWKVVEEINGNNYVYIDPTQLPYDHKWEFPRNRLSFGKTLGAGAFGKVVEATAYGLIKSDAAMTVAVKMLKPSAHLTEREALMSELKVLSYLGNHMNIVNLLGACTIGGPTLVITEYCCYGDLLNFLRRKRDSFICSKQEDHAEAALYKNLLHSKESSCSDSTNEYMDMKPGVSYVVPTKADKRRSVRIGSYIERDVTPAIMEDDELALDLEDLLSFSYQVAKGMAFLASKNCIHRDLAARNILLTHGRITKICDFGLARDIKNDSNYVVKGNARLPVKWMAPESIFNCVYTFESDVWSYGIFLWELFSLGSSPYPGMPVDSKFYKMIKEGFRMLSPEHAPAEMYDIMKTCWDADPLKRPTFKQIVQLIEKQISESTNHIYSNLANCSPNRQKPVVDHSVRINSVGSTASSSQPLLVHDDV
T2 sequence (P10721 with tags, fused parts or gaps DEL694-753/D816V): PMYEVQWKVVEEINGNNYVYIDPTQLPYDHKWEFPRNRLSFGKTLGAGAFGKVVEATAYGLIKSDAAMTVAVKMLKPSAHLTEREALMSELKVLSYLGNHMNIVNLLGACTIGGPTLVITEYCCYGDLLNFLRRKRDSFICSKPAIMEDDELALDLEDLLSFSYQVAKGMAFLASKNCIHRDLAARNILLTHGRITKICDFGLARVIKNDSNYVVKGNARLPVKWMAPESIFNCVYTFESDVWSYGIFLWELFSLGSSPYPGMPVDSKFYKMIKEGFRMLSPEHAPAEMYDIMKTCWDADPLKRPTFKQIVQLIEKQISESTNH

| Compound | IC50 [1] [µM] | IC50 [2] [µM] |
| --- | --- | --- |
| COc1ccc(NC(=O)NC2CCN(c3ncnc4[nH]ccc34)CC2)cc1 [P-0543, 1-(4-methoxyphenyl)-3-[1-(7H-pyrrolo[2,3-d]pyrimidin-4-yl)-4-piperidyl]urea] | 10 to 200 | 10 to 200 |
| COc1ccc([C@@H](C)NC(=O)N2CCN(c3ncnc4[nH]c(-c5ccc(Cl)cc5)cc34)C[C@H]2C)cc1 [P-0019, (2R)-4-[6-(4-chlorophenyl)-7H-pyrrolo[2,3-d]pyrimidin-4-yl]-N-[(1R)-1-(4-methoxyphenyl)ethyl]-2-methyl-piperazine-1-carboxamide] | 10 to 200 | 1 to 10 |
| Cc1nn(C)cc1-c1cc2ncnc(C3=CCN(C(=O)Nc4ccc(Cl)cc4)CC3)c2s1 [P-0612, N-(4-chlorophenyl)-4-[6-(1,3-dimethylpyrazol-4-yl)thieno[3,2-d]pyrimidin-4-yl]-3,6-dihydro-2H-pyridine-1-carboxamide] | 0.0001 to 1 | 0.0001 to 1 |
| C[C@@H]1CN(c2ncnc3cc(-c4ccc(F)cc4)sc23)CCN1C(=O)N[C@H](C)c1ccc(F)cc1 [P-0606, (2R)-N-[(1R)-1-(4-fluorophenyl)ethyl]-4-[6-(4-fluorophenyl)thieno[3,2-d]pyrimidin-4-yl]-2-methyl-piperazine-1-carboxamide] | 10 to 200 | 1 to 10 |
| CCc1ccc(S(=O)(=O)NC2CCN(c3ncnc4[nH]c(-c5ccnc(OC)c5)cc34)CC2)cc1 [P-0727, 4-ethyl-N-[1-[6-(2-methoxy-4-pyridyl)-7H-pyrrolo[2,3-d]pyrimidin-4-yl]-4-piperidyl]benzenesulfonamide] | 0.0001 to 1 | 0.0001 to 1 |
| Cc1ccc(S(=O)(=O)NC2CCN(c3ncnc4[nH]c(-c5cnn(C)c5)cc34)CC2)s1 [P-0454, 5-methyl-N-[1-[6-(1-methylpyrazol-4-yl)-7H-pyrrolo[2,3-d]pyrimidin-4-yl]-4-piperidyl]thiophene-2-sulfonamide] | 10 to 200 | 0.0001 to 1 |
| [2H]C([2H])([2H])S(=O)(=O)Nc1ccc(-c2ncnc3[nH]c(-c4ccc(F)cc4)cc23)c(F)c1 [P-0368, 1,1,1-trideuterio-N-[3-fluoro-4-[6-(4-fluorophenyl)-7H-pyrrolo[2,3-d]pyrimidin-4-yl]phenyl]methanesulfonamide] | 0.0001 to 1 | 0.0001 to 1 |
| COc1cccc([C@H](C)NC(=O)N2CCN(c3ncnc4[nH]c(-c5ccc(F)cc5)cc34)C[C@H]2C)c1 [P-0028, (R)-4-[6-(4-Fluoro-phenyl)-7H-pyrrolo[2,3-d]pyrimidin-4-yl]-2-methyl-piperazine-1-carboxylic acid [(S)-1-(3-methoxy-phenyl)-ethyl]-amide] | 0.0001 to 1 | 0.0001 to 1 |
| O=C(Nc1ccc(F)c(Cl)c1)N1CCN(c2ncnc3[nH]ccc23)CC1 [P-0165, N-(3-chloro-4-fluoro-phenyl)-4-(7H-pyrrolo[2,3-d]pyrimidin-4-yl)piperazine-1-carboxamide] | 1 to 10 | 10 to 200 |
| COc1cccc([C@H](C)NC(=O)N2CC=C(c3ncnc4cc(-c5ccc(F)cc5)sc34)CC2)c1 [P-0581, 4-[6-(4-fluorophenyl)thieno[3,2-d]pyrimidin-4-yl]-N-[(1S)-1-(3-methoxyphenyl)ethyl]-3,6-dihydro-2H-pyridine-1-carboxamide] | 1 to 10 | 0.0001 to 1 |
| COc1cc(-c2cc3c(C4=CCC(NS(=O)(=O)c5ccc(OC(F)(F)F)cc5)CC4)ncnc3[nH]2)ccn1 (stereo not drawn) [P-0654, N-[4-[6-(2-methoxy-4-pyridyl)-7H-pyrrolo[2,3-d]pyrimidin-4-yl]cyclohex-3-en-1-yl]-4-(trifluoromethoxy)benzenesulfonamide] | 10 to 200 | 0.0001 to 1 |
| CCOc1cccc(NC(=O)N2CCN(c3ncnc4[nH]c(-c5cccnc5)cc34)CC2)c1 [P-0221, N-(3-ethoxyphenyl)-4-[6-(3-pyridyl)-7H-pyrrolo[2,3-d]pyrimidin-4-yl]piperazine-1-carboxamide] | 1 to 10 | 0.0001 to 1 |
| COc1cccc([C@H](C)NC(=O)N2CCN(c3ncnc4cc(-c5ccc(F)cc5)sc34)C[C@H]2C)c1 [P-0600, (2R)-4-[6-(4-fluorophenyl)thieno[3,2-d]pyrimidin-4-yl]-N-[(1S)-1-(3-methoxyphenyl)ethyl]-2-methyl-piperazine-1-carboxamide] | 10 to 200 | 0.0001 to 1 |
| O=S(=O)(Nc1ccc(-c2ncnc3[nH]c(-c4ccc(F)cc4)cc23)c(F)c1)c1ccc(Cl)cc1 [P-0396, 4-chloro-N-[3-fluoro-4-[6-(4-fluorophenyl)-7H-pyrrolo[2,3-d]pyrimidin-4-yl]phenyl]benzenesulfonamide] | 10 to 200 | 0.0001 to 1 |
| CCCS(=O)(=O)Nc1ccc(-c2ncnc3[nH]c(-c4ccc(F)cc4)cc23)cc1F [P-0403, N-[2-fluoro-4-[6-(4-fluorophenyl)-7H-pyrrolo[2,3-d]pyrimidin-4-yl]phenyl]propane-1-sulfonamide] | 0.0001 to 1 | 0.0001 to 1 |
| Cc1nn(C)cc1-c1cc2ncnc(C3CCN(C(=O)N[C@@H](C)c4ccc(F)cc4)CC3)c2s1 [P-0603, 4-[6-(1,3-dimethylpyrazol-4-yl)thieno[3,2-d]pyrimidin-4-yl]-N-[(1S)-1-(4-fluorophenyl)ethyl]piperidine-1-carboxamide] | 10 to 200 | 1 to 10 |
| O=C(NCc1ccc(F)cc1)N1CCN(c2ncnc3[nH]c(-c4cccnc4)cc23)CC1 [P-0222, N-[(4-fluorophenyl)methyl]-4-[6-(3-pyridyl)-7H-pyrrolo[2,3-d]pyrimidin-4-yl]piperazine-1-carboxamide] | 1 to 10 | 1 to 10 |
| Cc1cc2c(-c3ccc(NS(=O)(=O)c4ccc(F)cc4)cc3)ncnc2[nH]1 [P-0331, 4-fluoro-N-[4-(6-methyl-7H-pyrrolo[2,3-d]pyrimidin-4-yl)phenyl]benzenesulfonamide] | 1 to 10 | 1 to 10 |
| COc1ccc(S(=O)(=O)Nc2ccc(-c3ncnc4[nH]c(C)cc34)cc2)cn1 [P-0324, 6-methoxy-N-[4-(6-methyl-7H-pyrrolo[2,3-d]pyrimidin-4-yl)phenyl]pyridine-3-sulfonamide] | 1 to 10 | 1 to 10 |
| O=S(=O)(Nc1ccc(-c2ncnc3[nH]c(C4=CCCC4)cc23)c(F)c1)c1ccc(F)cc1 [P-0321, N-[4-[6-(cyclopenten-1-yl)-7H-pyrrolo[2,3-d]pyrimidin-4-yl]-3-fluoro-phenyl]-4-fluoro-benzenesulfonamide] | 0.0001 to 1 | 0.0001 to 1 |
| Cc1cc2c(-c3ccc(NS(=O)(=O)c4cnn(C(F)F)c4)cc3)ncnc2[nH]1 [P-0322, 1-(difluoromethyl)-N-[4-(6-methyl-7H-pyrrolo[2,3-d]pyrimidin-4-yl)phenyl]pyrazole-4-sulfonamide] | 10 to 200 | 1 to 10 |
| CCCS(=O)(=O)Nc1ccc(-c2ncnc3cc(OC)c(OC)cc23)c(F)c1 [P-0269, N-[4-(6,7-dimethoxyquinazolin-4-yl)-3-fluoro-phenyl]propane-1-sulfonamide] | 10 to 200 | 0.0001 to 1 |
| COCCOc1cc2ncnc(-c3ccc(NS(C)(=O)=O)cc3F)c2cc1OCCOC [P-0264, N-[4-[6,7-bis(2-methoxyethoxy)quinazolin-4-yl]-3-fluoro-phenyl]methanesulfonamide] | 10 to 200 | 0.0001 to 1 |
| COc1cc(CNC(=O)N2CCN(c3ncnc4[nH]c(-c5cccnc5)cc34)CC2)ccn1 [P-0127, N-[(2-methoxy-4-pyridyl)methyl]-4-[6-(3-pyridyl)-7H-pyrrolo[2,3-d]pyrimidin-4-yl]piperazine-1-carboxamide] | 10 to 200 | 1 to 10 |
